Patent US20230002359A1, “PESTICIDALLY ACTIVE FUSED BICYCLIC HETEROAROMATIC COMPOUNDS” (priority 2019, published 2023)

Experiments:
Assay type in all cases: in vivo
[1] = test system: Chilo suppressalis (Striped Rice Stemborer); experiment: Example B3: Chilo suppressalis (striped rice stemborer), artificial diet, L2 larvae; settings: 144 h, application rate of 200 ppm, 6 days after infestation, L2 larvae, read-out: control in at least one of the three categories (mortality, anti-feedant effect, or growth inhibition)
Outline: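 Artificial diet treated with aqueous dilutions of DMSO stocks (10'000 ppm stock), dried, then infested with 6-8 L2 larvae per well. Mortality, anti-feeding and growth inhibition scored against untreated samples 6 days after infestation. Control counted when any category exceeds untreated.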

[2] = test system: Plutella xylostella (Diamond Back Moth); experiment: Example B4: Plutella xylostella (diamond back moth), artificial diet, eggs, 24-well; settings: 192 h, application rate of 200 ppm, 8 days after infestation, eggs, read-out: control in at least one of the two categories (mortality or growth inhibition)
Protocol: 24-well microtiter plates with artificial diet were treated with aqueous test solutions prepared from 10′000 ppm DMSO stock solutions by pipetting. After drying, Plutella eggs were pipetted through a plastic stencil onto a gel blotting paper and the plate was closed with it. The samples were assessed for mortality and growth inhibition in comparison to untreated samples 8 days after infestation.

[3] = test system: Diabrotica Balteata (Corn Root Worm); experiment: Example B1: Diabrotica balteata (corn root worm), maize sprouts sprayed, L2 larvae; settings: 96 h, application rate of 200 ppm, 4 days after infestation, L2 larvae, read-out: control in at least one of the two categories (mortality or growth inhibition)
Outline: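 Larvae at L2 stage, 6 to 10 per well, feed on dried, spray-treated maize sprouts set on agar. Evaluation after 4 days compares mortality and growth inhibition with untreated samples.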

[4] = test system: Spodoptera littoralis (Egyptian Cotton Leaf Worm); experiment: Example B7: Spodoptera littoralis (Egyptian cotton leaf worm), cotton leaf discs sprayed, L1 larvae; settings: foliar, 72 h, application rate of 200 ppm, 3 days after infestation, L1 larvae, read-out: control in at least one of the three categories (mortality, anti-feedant effect, or growth inhibition)
Protocol: Cotton leaf discs were placed onto agar in 24-well microtiter plates and sprayed with aqueous test solutions prepared from 10′000 ppm DMSO stock solutions. After drying the leaf discs were infested with five L1 larvae. The samples were assessed for mortality, anti-feeding effect, and growth inhibition in comparison to untreated samples 3 days after infestation. Control of Spodoptera littoralis by a test sample is given when at least one of the categories mortality, anti-feedant effect, and growth inhibition is higher than the untreated sample.

CC(c1nccnc1-n1nccn1)N(C)c1ncnc2c(C(F)(F)F)cc(Br)cc12 (stereo not shown) [P.105, 6-bromo-N-methyl-N-[1-[3-(triazol-2-yl)pyrazin-2-yl]ethyl]-8-(trifluoromethyl)quinazolin-4-amine]
≥ 80%: percent control (mortality, anti-feedant effect or growth inhibition) at 200 ppm [1] | percent control (mortality or growth inhibition) at 200 ppm [2] | percent control (mortality or growth inhibition) at 200 ppm [3] | percent control (mortality, anti-feedant effect or growth inhibition) at 200 ppm [4]

CC(c1nccnc1-c1ncccn1)N(CC1CC1)c1ncnc2c(C(F)(F)F)cc(C(F)(F)F)cc12 (stereo not shown) [P.108, N-(cyclopropylmethyl)-N-[1-(3-pyrimidin-2-ylpyrazin-2-yl)ethyl]-6,8-bis(trifluoromethyl)quina-zolin-4-amine]
≥ 80%: percent control (mortality, anti-feedant effect or growth inhibition) at 200 ppm [1] | percent control (mortality or growth inhibition) at 200 ppm [2] | percent control (mortality or growth inhibition) at 200 ppm [3] | percent control (mortality, anti-feedant effect or growth inhibition) at 200 ppm [4]

CC(Nc1ncnc2c(C(F)(F)F)cc(C(F)(F)F)cc12)c1nccnc1-c1ccc(OC(F)F)cn1 (stereo not shown) [P.109, N-[1-[3-[5-(difluoromethoxy)-2-pyridyl]pyrazin-2-yl]ethyl]-6,8-bis(trifluoromethyl)quina-zolin-4-amine]
≥ 80%: percent control (mortality, anti-feedant effect or growth inhibition) at 200 ppm [1] | percent control (mortality or growth inhibition) at 200 ppm [2] | percent control (mortality or growth inhibition) at 200 ppm [3] | percent control (mortality, anti-feedant effect or growth inhibition) at 200 ppm [4]

CC(c1nccnc1-c1ccc(OC(F)F)cn1)N(C)c1ncnc2c(C(F)(F)F)cc(C(F)(F)F)cc12 (stereo not shown) [P.110, N-[1-[3-[5-(difluoromethoxy)-2-pyridyl]pyrazin-2-yl]ethyl]-N-methyl-6,8-bis(trifluoromethyl)quina-zolin-4-amine]
≥ 80%: percent control (mortality, anti-feedant effect or growth inhibition) at 200 ppm [1] | percent control (mortality or growth inhibition) at 200 ppm [2] | percent control (mortality or growth inhibition) at 200 ppm [3] | percent control (mortality, anti-feedant effect or growth inhibition) at 200 ppm [4]

CC(Nc1ncnc2c(Br)cc(C(F)(F)F)cc12)c1nccnc1-c1ccc(OC(F)F)cn1 (stereo not shown) [P.111, 8-bromo-N-[1-[3-[5-(difluoromethoxy)-2-pyridyl]pyrazin-2-yl]ethyl]-6-(trifluoromethyl)quinazolin-4-amine]
≥ 80%: percent control (mortality, anti-feedant effect or growth inhibition) at 200 ppm [1] | percent control (mortality or growth inhibition) at 200 ppm [2] | percent control (mortality or growth inhibition) at 200 ppm [3] | percent control (mortality, anti-feedant effect or growth inhibition) at 200 ppm [4]

CC(c1nccnc1-c1ccc(OC(F)F)cn1)N(C)c1ncnc2c(Cl)cc(C(F)(F)F)cc12 (stereo not shown) [P.112, 8-chloro-N-[1-[3-[5-(difluroomethoxy)-2-pyridyl]pyrazin-2-yl]ethyl]-N-methyl-6-(trifluoromethyl)quinazolin-4-amine]
≥ 80%: percent control (mortality, anti-feedant effect or growth inhibition) at 200 ppm [1] | percent control (mortality or growth inhibition) at 200 ppm [2] | percent control (mortality or growth inhibition) at 200 ppm [3] | percent control (mortality, anti-feedant effect or growth inhibition) at 200 ppm [4]

CC(Nc1ncnc2c(Cl)cc(C(F)(F)F)cc12)c1nccnc1-c1ccc(OC(F)F)cn1 (stereo not shown) [P.113, 8-chloro-N-[1-[3-[5-(difluoromethoxy)-2-pyridyl]pyrazin-2-yl]ethyl]-6-(trifluoromethyl)quinazolin-4-amine]
≥ 80%: percent control (mortality, anti-feedant effect or growth inhibition) at 200 ppm [1] | percent control (mortality or growth inhibition) at 200 ppm [2] | percent control (mortality or growth inhibition) at 200 ppm [3] | percent control (mortality, anti-feedant effect or growth inhibition) at 200 ppm [4]

CC(c1nccnc1-c1ccc(OC(F)F)cn1)N(C)c1ncnc2c(Br)cc(C(F)(F)F)cc12 (stereo not shown) [P.114, 8-bromo-N-[1-[3-[5-(difluoromethoxy)-2-pyridyl]pyrazin-2-yl]ethyl]-N-methyl-6-(trifluoromethyl)quinazolin-4-amine]
≥ 80%: percent control (mortality, anti-feedant effect or growth inhibition) at 200 ppm [1] | percent control (mortality or growth inhibition) at 200 ppm [2] | percent control (mortality or growth inhibition) at 200 ppm [3] | percent control (mortality, anti-feedant effect or growth inhibition) at 200 ppm [4]

CC(Nc1ncnc2c(C(F)(F)F)cc(C(F)(F)F)cc12)c1nccnc1-c1ccc(C#N)cn1 (stereo not shown) [P.115, 6-[3-[1-[[6,8-bis(trifluoromethyl)quina-zolin-4-yl]amino]ethyl]pyrazin-2-yl]pyridine-3-carbonitrile]
≥ 80%: percent control (mortality, anti-feedant effect or growth inhibition) at 200 ppm [1] | percent control (mortality or growth inhibition) at 200 ppm [2] | percent control (mortality or growth inhibition) at 200 ppm [3] | percent control (mortality, anti-feedant effect or growth inhibition) at 200 ppm [4]

CC(c1nccnc1-c1ccc(C#N)cn1)N(C)c1ncnc2c(C(F)(F)F)cc(C(F)(F)F)cc12 (stereo not shown) [P.116, 6-[3-[1-[[6,8-bis(trifluoromethyl)quina-zolin-4-yl]-methyl-amino]ethyl]pyrazin-2-yl]pyridine-3-carbonitrile]
≥ 80%: percent control (mortality, anti-feedant effect or growth inhibition) at 200 ppm [1] | percent control (mortality or growth inhibition) at 200 ppm [2] | percent control (mortality or growth inhibition) at 200 ppm [3] | percent control (mortality, anti-feedant effect or growth inhibition) at 200 ppm [4]

CC(Nc1ncnc2c(Br)cc(C(F)(F)F)cc12)c1nccnc1-c1ccc(C#N)cn1 (stereo not shown) [P.117, 6-[3-[1-[[8-bromo-6-(trifluoromethyl)quinazolin-4-yl]amino]ethyl]pyrazin-2-yl]pyridine-3-carbonitrile]
≥ 80%: percent control (mortality, anti-feedant effect or growth inhibition) at 200 ppm [1] | percent control (mortality or growth inhibition) at 200 ppm [2] | percent control (mortality or growth inhibition) at 200 ppm [3] | percent control (mortality, anti-feedant effect or growth inhibition) at 200 ppm [4]

CC(Nc1ncnc2c(C(F)(F)F)cc(Cl)cc12)c1nccnc1-c1ccc(C#N)cn1 (stereo not shown) [P.118, 6-[3-[1-[[6-chloro-8-(trifluoromethyl)quinazolin-4-yl]amino]ethyl]pyrazin-2-yl]pyridine-3-carbonitrile]
≥ 80%: percent control (mortality, anti-feedant effect or growth inhibition) at 200 ppm [1] | percent control (mortality or growth inhibition) at 200 ppm [2] | percent control (mortality or growth inhibition) at 200 ppm [3] | percent control (mortality, anti-feedant effect or growth inhibition) at 200 ppm [4]

CC(Nc1ncnc2c(C(F)(F)F)cc(Br)cc12)c1nccnc1-c1ccc(C#N)cn1 (stereo not shown) [P.119, 6-[3-[1-[[6-bromo-8-(trifluoromethyl)quinazolin-4-yl]amino]ethyl]pyrazin-2-yl]pyridine-3-carbonitrile]
≥ 80%: percent control (mortality, anti-feedant effect or growth inhibition) at 200 ppm [1] | percent control (mortality or growth inhibition) at 200 ppm [2] | percent control (mortality or growth inhibition) at 200 ppm [3] | percent control (mortality, anti-feedant effect or growth inhibition) at 200 ppm [4]

CC(Nc1ncnc2c(C(F)(F)F)cc(Cl)cc12)c1nccnc1-c1ccc(OC(F)F)cn1 (stereo not shown) [P.120, 6-chloro-N-[1-[3-[5-(difluoromethoxy)-2-pyridyl]pyrazin-2-yl]ethyl]-8-(trifluoromethyl)quinazolin-4-amine]
≥ 80%: percent control (mortality, anti-feedant effect or growth inhibition) at 200 ppm [1] | percent control (mortality or growth inhibition) at 200 ppm [2] | percent control (mortality or growth inhibition) at 200 ppm [3] | percent control (mortality, anti-feedant effect or growth inhibition) at 200 ppm [4]

CC(c1nccnc1-c1ccc(C#N)cn1)N(C)c1ncnc2c(Cl)cc(C(F)(F)F)cc12 (stereo not shown) [P.122]
≥ 80%: percent control (mortality, anti-feedant effect or growth inhibition) at 200 ppm [1] | percent control (mortality or growth inhibition) at 200 ppm [2] | percent control (mortality or growth inhibition) at 200 ppm [3] | percent control (mortality, anti-feedant effect or growth inhibition) at 200 ppm [4]

CC(c1nccnc1-c1ccc(OC(F)F)cn1)N(C)c1ncnc2c(C(F)(F)F)cc(Cl)cc12 (stereo not shown) [P.123, 6-chloro-N-[1-[3-[5-(difluoromethoxy)-2-pyridyl]pyrazin-2-yl]ethyl]-N-methyl-8-(trifluoromethyl)quinazolin-4-amine]
≥ 80%: percent control (mortality, anti-feedant effect or growth inhibition) at 200 ppm [1] | percent control (mortality or growth inhibition) at 200 ppm [2] | percent control (mortality or growth inhibition) at 200 ppm [3] | percent control (mortality, anti-feedant effect or growth inhibition) at 200 ppm [4]

CC(c1nccnc1-c1ccc(C#N)cn1)N(C)c1ncnc2c(Br)cc(C(F)(F)F)cc12 (stereo not shown) [P.124, 6-[3-[1-[[8-bromo-6-(trifluoromethyl)quinazolin-4-yl]-methyl-amino]ethyl]pyrazin-2-yl]pyridine-3-carbonitrile]
≥ 80%: percent control (mortality, anti-feedant effect or growth inhibition) at 200 ppm [1] | percent control (mortality or growth inhibition) at 200 ppm [2] | percent control (mortality or growth inhibition) at 200 ppm [3] | percent control (mortality, anti-feedant effect or growth inhibition) at 200 ppm [4]

CC(c1nccnc1-c1ccc(C#N)cn1)N(CC1CC1)c1ncnc2c(C(F)(F)F)cc(C(F)(F)F)cc12 (stereo not shown) [P.126, 6-[3-[1-[[6,8-bis(trifluoromethyl)quina-zolin-4-yl]-(cyclopropylmethyl)amino]ethyl]pyrazin-2-yl]pyridine-3-carbonitrile]
≥ 80%: percent control (mortality, anti-feedant effect or growth inhibition) at 200 ppm [1] | percent control (mortality or growth inhibition) at 200 ppm [2] | percent control (mortality or growth inhibition) at 200 ppm [3] | percent control (mortality, anti-feedant effect or growth inhibition) at 200 ppm [4]

CC(c1nccnc1-n1nccn1)N(C)c1ncnc2c(C(F)(F)F)cc(Cl)cc12 (stereo not shown) [P.129, 6-chloro-N-methyl-N-[1-[3-(triazol-2-yl)pyrazin-2-yl]ethyl]-8-(trifluoromethyl)quinazolin-4-amine]
≥ 80%: percent control (mortality, anti-feedant effect or growth inhibition) at 200 ppm [1] | percent control (mortality or growth inhibition) at 200 ppm [2] | percent control (mortality or growth inhibition) at 200 ppm [3] | percent control (mortality, anti-feedant effect or growth inhibition) at 200 ppm [4]
